This note sets out measurements from US8759363B2, “Quinazoline-based T cell proliferation inhibitors” (Yissum Research Development Company of the Hebrew …, priority 2010, dated 2014).

In data set [1] the test system is PBMC. Description: PBMC proliferation, BrdU incorporation. The format is cell-based, human. The conditions noted are these: for IC50: Homo sapiens, ConA-stimulated PBMC, BrdU uptake, nM ± SD, read-out: IC50 PBMC proliferation inhibition. The method, then: Blood samples were taken from healthy donors and loaded on a Ficoll density gradient to purify the PBMC population. T cells were purified by human anti-CD3 using an autoMACS instrument (Miltenyi Biotec, Bergisch-Gladbach, Germany), according to the manufacturer's instructions. The identity of T cells was confirmed by flow cytometry, as they stained positive for CD3. Cells were stimulated with ConA (10 μg/ml), ODN2006 (0.5 μg/ml; Enzo Life Sciences), or LPS (50 μg/ml; Sigma-Aldrich, Steinheim, Germany), for 72 h in the presence of the inhibitor, and their proliferation was measured in the BrdU incorporation assay as will be later described.
(§1) Cells were depleted of fetal calf serum (FCS) for 12 hours. They were then stimulated to proliferate by addition of ConA (10 μg/ml) for PBMC from healthy individuals and for Jurkat cells, FCS (10%) for HEK293 and A375 cells, PDGF (30 ng/ml) for NIH 3T3 cells, and EGF (30 ng/ml) for MDA-MB-231, Cells (1×10^5) were cultured in 96-well plates for 3 days in the presence or absence of inhibitors at the concentrations specified in the text. Each condition was tested in duplicate wells.
(§2) Proliferation was assessed by BrdU incorporation using a colorimetric ELISA kit (Roche, Germany). Subsequent to labeling with 10 μM BrdU, DNA was denatured and the cells were incubated with anti-BrdU-POD, prior to the addition of colorimetric substrate (TMB). The reaction product was quantified by measuring absorbance at 450 nm in an ELISA plate reader (ELx800 BIO-TEK Instruments Inc.).
(§3) Since we were not prejudiced towards any specific protein kinase, we used a biological assay for T cell proliferation. We tested our libraries for inhibition of proliferation of PBMC and Jurkat cells (Table 3). Cell proliferation was measured by BrdU uptake. […] PBMC cells were stimulated by a non-specific T cell mitogen, Concanavalin A (ConA). All of the compounds that were tested inhibited proliferation at micromolar or sub-micromolar concentrations.
Background: Uptake of a labelled nucleoside into DNA is a usual measure of proliferation.

The test system of data set [2] is Jurkat cells. Description: Jurkat cell proliferation, BrdU incorporation. The note with it: for IC50: Homo sapiens, Jurkat, BrdU uptake, nM ± SD, read-out: IC50 Jurkat cells proliferation inhibition. It is filed as cell-based, human. The method, then: as §1, §2, §3
For data set [3], the system named is IL-2 secretion by 2C splenocytes stimulated by irradiated BALB/c splenocytes. Description: IL-2 levels in MLR supernatants. The format is cell-based, mouse. The conditions noted are these: 24, 48 and 72 h MLR; compound 2 up to 1 μM. How it is done:
In the mixed lymphocyte reaction, stimulator cells cause responder cells to proliferate, owing to alloreactivity [Reich-Zeliger et al., 2004]. Splenocytes from 2c mice were stimulated by irradiated splenocytes from BALB/c mice in the presence of the evaluated compound at the concentrations specified. Cultures were incubated for 72 hours in 96-well plates.
Jurkat or PBMC cells were treated for 12 h with 1 μM, 0.5 μM or no inhibitor. Cells (1×10^6) were plated in 24-well plates (Nunc) and stimulated by C305 (dilution 1:500), anti-CD28 (1:100), PMA (50 ng/ml) or ionomycin (1 μM) for 12 h. Alternately, cells were stimulated for 24, 48 and 72 h in MLR. After stimulation cells were centrifuged at 130×g for 5 minutes at room temperature.
Supernatants were collected and IL-2 was assayed using the IL-2 ELISA kit (BioSource International USA, KH0022) according to the manufacturer's instructions. Absorbance was read at 450 nm in an ELISA plate reader (ELx800 BIO-TEK Instruments Inc.).
In vivo, T cells are stimulated by neighboring cells. In order to test the effect of 2 on cell-stimulated IL-2 secretion, the supernatants of splenocytes after 24, 48 and 72 h MLR were collected and analyzed for their IL-2 levels (FIG. 5C). […] At higher concentrations, no viable cells remained.

Data set [4] relates to CD8+ (2C) and CD4+ (TEA) T cells. Description: MLR, double-positive CD8+1B2+ (2C) or CD4+/Va2+ (TEA) effector cells by FACS. The format is cell-based, mouse. The note with it: 72 h MLR. From the text: Mice used included male and female 6- to 12-week-old CB6/F1 mice, obtained from the Roscoe B. Jackson Memorial Laboratory (The Jackson Laboratory, Bar Harbor, Me., http://www.jax.org). A breeding pair of transgenic (Tg) H-2b mice expressing the T-cell antigen receptor (TCR) 1B2 from the CD8+ clone 2C with specificity for H-2Ld was kindly provided by Janko Nikolic-Zugic (Memorial Sloan-Kettering Cancer Center, New York, http://www.mskcc.org). A breeding pair of Tg H-2b mice expressing the TCR from the CD4+ clone known as TEA with specificity for I-Ead allopeptide, cross-presented by host APC and bound to I-Ab and was kindly provided by Alexander Y. Rudensky (University of Washington, Seattle). I-Ead allopeptide corresponds to the positions 52 to 68 from the alpha-chain of I-E class II molecules and is expressed in all APCs from H-2b/I-E+ strains (CB6F1-hybrid of C57BL/6 and Balb/c). C57BL/6 mice are H-2b but I-E−, whereas BALB/c are H-2d and I-E+, and therefore their F1 hybrids are H-2b/1-E+ and able to directly present antigen.
Responder 2C splenocytes were harvested, and the cell suspensions were treated with Tris-buffered ammonium chloride to remove RBC. […] On day 3, the MLR cultures were harvested, and analyzed by FACS for CD4 or CD8 levels.
FACS analysis was performed using a modified FACScan (BD Biosciences, Mountain View, Calif.). Fluorescence data were collected during one minute. […]

Data set [5] concerns 2C (stimulated) cells. Description: MLR with resting control cells, stimulated 2C cells. The conditions noted are these: 0.5 μM, 72 h MLR with IL-7; no inhibitor 3805. It is filed as cell-based, mouse. From the text:
(§4) The aim of this test was to determine whether 2 affects only the proliferating cells or there is a general mechanism affecting all cell numbers. For this purpose we mixed 3 cell types: […]: BALB/c, 2C and OT1; […]: CB6F1, TEA and OT2. The OT1 and OT2 are splenocytes that were isolated from OT1 and OT2 mice (Jackson Laboratories, Bar Harbor, Me.),
(§5) Thus, the ability to monitor the fate of proliferation and resting cells by FACS was enabled due to the use of the MLR described above for CD4+ and CD8+ and the addition of OT2 and OT1 splenocytes, respectively.
(§6) Proliferating cells often secrete cytokines that induce survival of neighbouring cells; since the proliferation was expected to be inhibited we added 50 ng/ml of IL-7. This concentration is sufficient to keep the cells alive, but not to induce proliferation.
(§7) Irradiated Balb splenocytes were incubated for 72 h with 2C, and OT1 splenocytes in the presence of IL-7 W/O inhibitor.
(§8) The CD4+ and CD8+ were stimulated to proliferate, whereas in the absence of specific stimuli the OT1 and OT2 cell populations were resting, and theses cells were kept alive by the administration of IL-7. […] The number of 2C and OT1 cells that were treated with 0.5 μM 2 was 286 and 1148, respectively, while the number of 2C and OT1 cells that were treated with 0.5 μM 21 (control) was 4767 and 2468, respectively. This is depicted as a bar-graph in FIG. 8C.

Data set [6] concerns OT1 (resting) cells. Put plainly: MLR with resting control cells, resting OT1 cells. It is filed as cell-based, mouse. The note with it: 0.5 μM, 72 h MLR with IL-7; no inhibitor 2459.
Source text: as §4, §5, §6, §7, §8

Data set [7] deals with TEA (stimulated) cells. Description: MLR with resting control cells, stimulated TEA cells. It is filed as cell-based, mouse. The note with it: 0.5 μM, 72 h MLR with IL-7; no inhibitor 3850.
Source text: as §4, §5, §6
(§9) The number of TEA and OT2 cells that were treated with 0.5 μM 2 was 1452 and 826, respectively, while the number of 2C and OT1 cells that were treated with 0.5 μM 21 was 3003 and 903, respectively. This is depicted as a bar-graph in FIG. 9C.

Data set [8] deals with OT2 (resting) cells. Put plainly: MLR with resting control cells, resting OT2 cells. The format is cell-based, mouse. The conditions noted are these: 0.5 μM, 72 h MLR with IL-7; no inhibitor 1025.
Source text: as §4, §5, §6, §9

The term melting point denotes the temperature of the solid-liquid transition. Turning to `Cc1ccc(Nc2nc(-c3cc(O)c(O)c(O)c3)nc3ccccc23)cc1` [Compound 21, 5-(4-(p-tolylamino)quinazolin-2-yl)benzene-1,2,3-triol], the melting point is above 250 °C. In addition, in [1], the IC50 came to 850 ± 0.21 nM. In addition, in data set [2], the IC50 came to 850 ± 0.21 nM. In [3], the “IL-2 levels in MLR supernatants” value is reported as “decreased after 72 h”. Also, the “percentage of double-positive effector cells” value in [4] was “no reduction was observed”. Besides, the “number of 2C (stimulated) cells” value in data set [5] came out at 4767. Also, in data set [6], the “number of OT1 (resting) cells” value turned out to be 2468. Moreover, the “number of TEA (stimulated) cells” value in data set [7] worked out at 3003. Besides, in data set [8], the “number of OT2 (resting) cells” value was 903.

Consider `COc1cc(-c2nc(Nc3ccccc3)c3ccccc3n2)cc(OC)c1OC` [Compound 1, N-phenyl-2-(3,4,5-trimethoxyphenyl)quinazolin-4-amine], for which the melting point was above 250 °C. Further, the IC50 in data set [1] turned out to be 280 ± 0.04 nM. Besides, in [1] (relative to compound 2), the “fold increase in the IC50 of PBMC proliferation compared with compound 2” value came to 3 fold. For the same molecule, in data set [2], the IC50 was found to be 380 ± 0.18 nM. The “fold increase in the IC50 of Jurkat cell proliferation compared with compound 2” value in data set [2] (relative to compound 2) amounted to 10 fold.

As for `COc1cc(-c2nc(Nc3ccc4[nH]ncc4c3)c3ccccc3n2)cc(OC)c1OC` [Compound 16, N-(1H-indazol-5-yl)-2-(3,4,5-trimethoxyphenyl)quinazolin-4-amine], the melting point was above 250 °C. In addition, in data set [1], the IC50 stood at 600 ± 0.28 nM. In data set [2], the IC50 is 700 ± 0.35 nM.

Regarding `Nc1ccc(CNc2nc(-c3cc(O)c(O)c(O)c3)nc3ccccc23)cc1` [Compound 30, 5-(4-(4-aminobenzylamino)quinazolin-2-yl)benzene-1,2,3-triol], the melting point was above 250 °C. For the same molecule, the IC50 in data set [1] is 570 ± 0.24 nM. In data set [2], the IC50 was found to be 670 ± 0.22 nM.

With `COc1cc(-c2nc(NCc3ccc(F)c(F)c3)c3ccccc3n2)cc(OC)c1OC` [Compound 12, N-(3,4-difluorobenzyl)-2-(3,4,5-trimethoxyphenyl)quinazolin-4-amine], the melting point is above 250 °C. Moreover, the IC50 in data set [1] was determined as 200 nM. In addition, in [2], the IC50 came to 730 ± 0.39 nM.

On to `COc1cc(-c2nc(NCc3ccc(N)cc3)c3ccccc3n2)cc(OC)c1OC` [Compound 11, N-(4-aminobenzyl)-2-(3,4,5-trimethoxyphenyl)quinazolin-4-amine], for which the melting point is above 250 °C. The IC50 in data set [1] is 380 ± 0.04 nM. For the same molecule, the IC50 in data set [2] was 480 ± 0.18 nM.

`Oc1cc(-c2nc(NCCc3c[nH]c4ccccc34)c3ccccc3n2)cc(O)c1O` [Compound 36, 5-(4-(2-(1H-indol-3-yl)ethylamino)quinazolin-2-yl)benzene-1,2,3-triol] came in with a melting point above 250 °C. Moreover, in data set [1], the IC50 was determined as 1240 ± 0.74 nM. Also, the IC50 in [2] was 1970 ± 0.74 nM.

`COc1cc(-c2nc(Nc3ccc(Cl)cc3)c3ccccc3n2)cc(OC)c1OC` [Compound 8, N-(4-chlorophenyl)-2-(3,4,5-trimethoxyphenyl)quinazolin-4-amine]: the melting point was above 250 °C. The IC50 in [1] is 300 ± 0.05 nM. In addition, the IC50 in data set [2] is 530 ± 0.32 nM.

Regarding `Oc1cc(-c2nc(Nc3ccc(OC(F)(F)F)cc3)c3ccccc3n2)cc(O)c1O` [Compound 26, 5-(4-(4-(trifluoromethoxy)phenylamino)quinazolin-2-yl)benzene-1,2,3-triol], the melting point was above 250 °C. Also, in data set [1], the IC50 worked out at 2780 ± 0.26 nM. For the same molecule, in data set [2], the IC50 worked out at 3240 ± 0.31 nM.

As for `COc1cc(-c2nc(Nc3ccc4c(c3)OCO4)c3ccccc3n2)cc(OC)c1OC` [Compound 18, N-(benzo[d][1,3]dioxol-5-yl)-2-(3,4,5-trimethoxyphenyl) quinazolin-4-amine], the melting point is above 250 °C. In data set [1], the IC50 amounted to 380 ± 0.04 nM. The IC50 in data set [2] came out at 600 nM.
